Patent US9371292B2, “Quinazoline derivative, preparation method therefor, intermediate, composition and application thereof” (SHANGHAI PHARMACEUTICALS HOLDINGS CO., LTD., priority 2011, dated 2016)
Structures can show the parent of a compound that is named as a salt. Where two headings read alike, the source gives them in different places.

Legend:
NCI-H1975 = format: in vivo, BALB/c nude mice; conditions: for Tolerability in mice: mouse, in vivo, po; for Tumor volume: 60 mg/kg PO QD
Source text: Preparation method: dissolve the test compound in 20% PEG400+3% Tween80 to obtain a required concentration; dissolve the control group in 0.5% CMC+0.4% Tween80 to obtain a required concentration.
BALB/c nude mice (Shanghai xipuer-bikai experimental animals company), weight 16-18 g, female. BD matrigel, NCI-H1975 cell (ATCC)
Cells in logarithmic phase were collected. The ratio of medium to matrigel was 1:1. The concentration of cell was adjust to 3×10^7/ml and put into a ice box, then inoculated in each nude mice subcutaneously with 0.2 ml. Then carry out intragastric administration once a day for 5 days and stop administration for 2 days. Administrate for 9 days in total. Dosages are as follows:
The size and weight were measured. The length and width of tumors were measured individually with microcalipers. Tumor volume (V) and relative tumor volume (RTV) was calculated as formula. Day 12, all the nude mouse were killed and the tumors were taken out and pictured. The individual as follows: RTV=Vt/V0, where Vt is and V0 is. and the calculation formula is T/C (%)=mean RTV of the treated group/mean RTV of the control group×100%.
(1) Tumor volume (Tumor Volume, TV), calculation formula: […], wherein a and b presents length and width respectively.
(2) Relative Tumor Volume (RTV), calculation formula: RTV=Vt/V0.
Wherein TV0 is the volume on the day of initial treatment, TVt is the volume on each day of measurement.
(3) The relative tumor increment rate T/C (%), calculation formula: […]
TRTV: treated group RTV; CRTV: negative control group RTV.
Therapeutic effect of compound was expressed in terms of T/C %.

EGFR tyrosine kinase = molecular target: T1, EGFR tyrosine kinase (Homo sapiens, UniProt P00533); test: HTRF assay, inhibition of EGFR tyrosine kinase; format: biochemical; conditions: HTRF method
T1 construct: purchased Sigma Aldrich
Description: The activity of inhibitory against the kinase of the test compound is expressed by IC50. The assays are performed by Homogeneous time-resolved fluorescence (HTRF) method which is as follows: a series of synthesized analogues with gradient concentration are incubated for 5 minutes in enzymatic solution with specific concentration (for EGFR) at room temperature. Then proper amount of substrate and ATP are added into the reaction mixture to start the enzyme reaction. The assays of the specific concentration of compound is measured by Flexstation III of Molecular device company after the stop buffer and detecting liquid are added to the enzyme reaction system and hatch at room temperature for 1 hour. And the activity of inhibitory against the kinase of the test compound with different concentration will be calculated, then according to the 4-parameter equation, fit the inhibitory activity of the test compound with different concentration to get the IC50. EGFR is purchased from Sigma Aldrich. The HTRF KinEASE-TK is purchased from Cisbio Bioassays. ATP is purchased from Sigma Aldrich.

[1] = tested on: NCI-H1975 L858R T790M cell; test: Proliferation inhibition, H1975 cells (CellTiter-Glo); format: cell-based; conditions: Homo sapiens, 48 hours
Description: (§1) This example is to determine the proliferation inhibitory activity against wide type of high expression cell lines A431 of EGFR and mutant cell lines NCI-H1975^L858RT790M, the proliferation inhibitory activity in cell-based level of compound is expressed by IC50. The test method is as follows: both cell lines are purchased from American type culture collection (ATCC). The cells are seeded in a white and opaque 384-well culture plate with a proper concentration (A431: 20000 cells/ml medium; H1975: 15000 cells/ml medium), cultured at 37° C. with 5% CO2 for 24 hrs, a series of medicine with gradient concentration is added, generally 10 concentrations, cultured for another 48 hours under the previous conditions. The assays of the proliferation inhibitory activity against the A431 and H1975 cell of the test compounds are performed by the CellTiter-Glo Luminescent Cell Viability Assay and calculate the proliferation inhibitory activity of compound with different concentrations. CellTiter-Glo Luminescent Cell Viability Assay is purchased from Promega. Fit the data of proliferation inhibitory activity against A431 and H1975 of compounds with different concentrations with 4-parameter equation.

A431 cell = test: Proliferation inhibition, A431 cells (CellTiter-Glo); format: cell-based; conditions: Homo sapiens, A-431, 48 hours
Description: as §1

T1 sequence (P00533 25-1210): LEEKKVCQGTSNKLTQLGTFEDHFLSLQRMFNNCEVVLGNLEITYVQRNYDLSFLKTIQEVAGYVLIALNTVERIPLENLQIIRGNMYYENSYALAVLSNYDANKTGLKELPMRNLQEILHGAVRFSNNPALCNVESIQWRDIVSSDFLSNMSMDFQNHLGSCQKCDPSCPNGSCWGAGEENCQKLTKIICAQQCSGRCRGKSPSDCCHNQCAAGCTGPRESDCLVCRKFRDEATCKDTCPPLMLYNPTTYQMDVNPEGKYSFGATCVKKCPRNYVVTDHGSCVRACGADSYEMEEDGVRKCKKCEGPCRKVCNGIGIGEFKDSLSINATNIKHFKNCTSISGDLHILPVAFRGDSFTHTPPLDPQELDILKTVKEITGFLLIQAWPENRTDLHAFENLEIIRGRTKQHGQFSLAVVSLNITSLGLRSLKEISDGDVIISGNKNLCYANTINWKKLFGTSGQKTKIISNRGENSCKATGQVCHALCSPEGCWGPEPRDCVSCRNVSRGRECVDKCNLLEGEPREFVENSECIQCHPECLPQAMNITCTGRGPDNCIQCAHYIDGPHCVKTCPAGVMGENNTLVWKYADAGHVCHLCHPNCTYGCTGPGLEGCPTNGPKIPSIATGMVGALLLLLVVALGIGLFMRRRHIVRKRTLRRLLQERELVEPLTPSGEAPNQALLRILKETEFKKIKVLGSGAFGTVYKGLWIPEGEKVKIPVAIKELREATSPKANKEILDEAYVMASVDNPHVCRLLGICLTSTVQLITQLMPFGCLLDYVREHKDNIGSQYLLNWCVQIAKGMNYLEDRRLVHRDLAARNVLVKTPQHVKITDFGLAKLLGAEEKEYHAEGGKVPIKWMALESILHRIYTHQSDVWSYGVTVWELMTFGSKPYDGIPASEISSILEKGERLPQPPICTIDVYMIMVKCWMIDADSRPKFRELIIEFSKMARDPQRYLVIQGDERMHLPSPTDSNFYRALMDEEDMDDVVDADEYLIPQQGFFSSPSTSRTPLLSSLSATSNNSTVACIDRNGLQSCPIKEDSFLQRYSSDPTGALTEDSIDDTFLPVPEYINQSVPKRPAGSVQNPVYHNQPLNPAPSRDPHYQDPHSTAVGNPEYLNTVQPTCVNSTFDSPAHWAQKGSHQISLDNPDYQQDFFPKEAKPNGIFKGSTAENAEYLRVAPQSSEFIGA

| SMILES | IC50 (EGFR tyrosine kinase) | IC50 [1] | IC50 (A431 cell) | also measured |
| --- | --- | --- | --- | --- |
| COc1cc2ncnc(Nc3ccc(F)c(Cl)c3)c2cc1NC(=O)/C(F)=C/CN(C)C [2-1(hydrochloride), (Z)—N-(4-((3-chloro-4-fluorophenyl)amino)-7-methoxyquinazolin-6-yl)-4-(dimethylamino)-2-fluorobut-2-enamide] |  |  |  | Inhibition of growth of NCI-H1975 in nude mice (in words) (NCI-H1975; NCI-H1975 nude mice, 60 mpk, 60 mg/kg): significantly inhibit the growth; Tolerability in mice (NCI-H1975; 60 mg/kg): well tolerated |
| C=C(F)C(=O)Nc1cc2c(Nc3ccc(F)c(Cl)c3)ncnc2cc1OCCCN1CCOCC1 [Compound 5, N-(4-((3-chloro-4-fluorophenyl)amino)-7-(3-morpholinopropoxy)quinazolin-6-yl)-2-fluoroacrylamide] | 0.39 nM | 2500 nM | 3200 nM | Tumor volume (NCI-H1975; Day 0, NCI-H1975 nude mice): 177 ± 17 mm^3; Tumor volume (NCI-H1975; Day 2, NCI-H1975 nude mice): 160 ± 11 mm^3; Tumor volume (NCI-H1975; Day 4, NCI-H1975 nude mice): 164 ± 27 mm^3; Tumor volume (NCI-H1975; Day 7, NCI-H1975 nude mice): 147 ± 20 mm^3; Tumor volume (NCI-H1975; Day 9, NCI-H1975 nude mice): 151 ± 27 mm^3; Tumor volume (NCI-H1975; Day 11, NCI-H1975 nude mice): 131 ± 33 mm^3; Tolerability in mice (NCI-H1975; 60 mg/kg): well tolerated |
| C=C(F)C(=O)Nc1cc2c(Nc3ccc(Cl)c(OC)c3)ncnc2cc1OCCCN1CCOCC1 [Compound 37, N-[4-(4-chloro-3-methoxy-phenylamino)-7-(3-morpholin-4-yl-propoxy)-quinazolin-6-yl]-2-fluoro-acrylamide] | 4.7 nM | 1900 nM | > 100000 nM |  |
| C=C(F)C(=O)Nc1cc2c(Nc3ccc(F)c(Cl)c3)ncnc2cc1OCCCN1CCCC1 [Compound 43, N-[4-(3-chloro-4-fluoro-phenylamino)-7-(3-pyrrolidin-l-yl-propoxy)-quinazolin-6-yl]-2-fluoro-acrylamide] | 1.3 nM | 3400 nM | 1680 nM |  |
| C=C(F)C(=O)Nc1cc2c(Nc3ccc(F)c(Cl)c3F)ncnc2cc1OCC1CCC1 [Compound 47, N-[4-(3-chloro-2,4-difluoro-phenylamino)-7-cyclobutylmethoxy-quinazolin-6-yl]-2-fluoro-acrylamide] | 1.88 nM | 1500 nM | 14000 nM |  |
| C=C(F)C(=O)Nc1cc2c(Nc3ccc(F)c(Cl)c3F)ncnc2cc1O[C@@H]1CCN(C)C1 [Compound 50, (R)-N-[4-(3-chloro-2,4-difluoro-phenylamino)-7-(1-methyl-pyrrolidin-3-yloxy)-quinazolin-6-yl]-2-fluoro-acrylamide] | 5.5 nM | 2400 nM | 15000 nM |  |
| C=C(F)C(=O)Nc1cc2c(Nc3cccc(Br)c3)ncnc2cc1OC [Compound 52, N-[4-(3-bromo-phenylamino)-7-methoxy-quinazolin-6-yl]-2-fluoro-acrylamide] | 0.22 nM | 470 nM | 1600 nM |  |
| C=C(F)C(=O)Nc1cc2c(Nc3cccc(Br)c3)ncnc2cc1OCC [Compound 53, N-[4-(3-bromo-phenylamino)-7-ethoxy-quinazolin-6-yl]-2-fluoro-acrylamide] | 0.36 nM | 1000 nM | 36000 nM |  |
| C=C(F)C(=O)Nc1cc2c(Nc3cccc(C(F)(F)F)c3)ncnc2cc1OCC [Compound 55, N-[7-ethoxy-4-(3-trifluoromethyl-phenylamino)-quinazolin-6-yl]-2-fluoro-acrylamide] | 0.97 nM | 13000 nM | 22000 nM |  |
| C=C(F)C(=O)Nc1cc2c(Nc3ccc(F)c(Cl)c3)ncnc2cc1OC [Compound 56, N-[4-(3-chloro-4-fluoro-phenylamino)-7-methoxy-quinazolin-6-yl]-2-fluoro-acrylamide] | 0.22 nM | 510 nM | 2800 nM |  |
| C=C(Cl)C(=O)Nc1cc2c(Nc3cccc(C(F)(F)F)c3)ncnc2cc1OCC [Compound 58, N-[7-ethoxy-4-(3-trifluoromethyl-phenylamino)-quinazolin-6-yl]-2-chloro-acrylamide] | 1 nM | 8300 nM | 27000 nM |  |

Further lines, with some results ahead:

| IC50 (EGFR tyrosine kinase) | IC50 [1] | IC50 (A431 cell) | SMILES | also measured |
| --- | --- | --- | --- | --- |
| 0.35 nM | 1100 nM | 180 nM | C=C(F)C(=O)Nc1cc2c(Nc3ccc(Br)c(Cl)c3F)ncnc2cc1OCCCN1CCOCC1 [Compound 38, N-[4-(4-bromo-3-chloro-2-fluoro-phenylamino)-7-(3-morpholin-4-yl-propoxy)-quinazolin-6-yl]-2-fluoro-acrylamide] |  |
| 1 nM | 3400 nM | 1300 nM | C=C(F)C(=O)Nc1cc2c(Nc3ccc(F)c(Cl)c3)ncnc2cc1OCCCN1CCCCC1 [Compound 40, N-[4-(3-chloro-4-fluoro-phenylamino)-7-(3-piperidin-l-yl-propoxy)-quinazolin-6-yl]-2-fluoro-acrylamide] |  |
| 0.55 nM | 2400 nM | 530 nM | C=C(F)C(=O)Nc1cc2c(Nc3ccc(F)c(Cl)c3)ncnc2cc1OCCCN(C)C [Compound 42, N-[4-(3-chloro-4-fluoro-phenylamino)-7-(3-dimethylamino-propoxy)-quinazolin-6-yl]-2-fluoro-acrylamide] |  |
| 0.29 nM | 3700 nM | 530 nM | C=C(F)C(=O)Nc1cc2c(Nc3ccc(F)c(Cl)c3)ncnc2cc1OCCCN1CCN(C)CC1 [Compound 44, N-{4-(3-chloro-4-fluoro-phenylamino)-7-[3-(4-methyl-piperazin-1-yl)-propoxy]-quinazolin-6-yl}-2-fluoro-acrylamide] |  |
| 0.65 nM | 1800 nM | 13000 nM | C=C(F)C(=O)Nc1cc2c(Nc3ccc(F)c(Cl)c3F)ncnc2cc1OCC1CC1 [Compound 48, N-[4-(3-chloro-2,4-difluoro-phenylamino)-7-cyclopropylmethoxy-quinazolin-6-yl]-2-fluoro-acrylamide] |  |
| 4.9 nM | 7300 nM | 20000 nM | C=C(F)C(=O)Nc1cc2c(Nc3ccc(F)c(Cl)c3F)ncnc2cc1O[C@H]1CCN(C)C1 [Compound 51, (S)-N-[4-(3-chloro-2,4-difluoro-phenylamino)-7-(1-methyl-pyrrolidin-3-yloxy)-quinazolin-6-yl]-2-fluoro-acrylamide] |  |
| 1.1 nM | 13000 nM | 3800 nM | C=C(F)C(=O)Nc1cc2c(Nc3cccc(C(F)(F)F)c3)ncnc2cc1OC [Compound 54, N-[7-methoxy-4-(3-trifluoromethyl-phenylamino)-quinazolin-6-yl]-2-fluoro-acrylamide] |  |
| 0.13 nM | 1300 nM | 7500 nM | C=C(Cl)C(=O)Nc1cc2c(Nc3ccc(F)c(Cl)c3)ncnc2cc1OC [Compound 57, N-[4-(3-chloro-4-fluoro-phenylamino)-7-methoxy-quinazolin-6-yl]-2-chloro-acrylamide] |  |
| 0.63 nM | 11000 nM | 10000 nM | C=C(Cl)C(=O)Nc1cc2c(Nc3cccc(Br)c3)ncnc2cc1OCC [Compound 59, N-[4-(3-bromo-phenylamino)-7-ethoxy-quinazolin-6-yl]-2-chloro-acrylamide] |  |
| 4.5 nM | 1000 nM | 800 nM | C=C(F)C(=O)Nc1cc2c(Nc3ccc(OCC4CC4)c(Cl)c3)ncnc2cc1OCCCN1CCOCC1 [Compound 61] |  |
